# From article PMC6271077, “Synthesis, Anticancer and Antibacterial Activity of Salinomycin N-Benzyl Amides” (Molecules, 2014)
# Legend:
# MRSE 466/11 = assay: MIC microdilution, hospital MRSE; type: cell-based; details: Staphylococcus epidermidis; hospital MRSE strain 466/11; read-out: MIC
# MRSE 489/11 = assay: MIC microdilution, hospital MRSE; type: cell-based; details: Staphylococcus epidermidis; hospital MRSE strain 489/11; read-out: MIC
# MRSE 461/11 = assay: MIC microdilution, hospital MRSE; type: cell-based; details: Staphylococcus epidermidis; hospital MRSE strain 461/11; read-out: MIC
# [1] = tested on: S. epidermidis ATCC 12228; assay: MIC microdilution; type: cell-based; details: Staphylococcus epidermidis, ATCC12228; S. epidermidis ATCC 12228; 18 h, 35 °C; read-out: MIC
# MRSA 537/12 = assay: MIC microdilution, hospital MRSA; type: cell-based; details: Staphylococcus aureus; hospital MRSA strain 537/12; read-out: MIC
# MRSA 514/11 = assay: MIC microdilution, hospital MRSA; type: cell-based; details: Staphylococcus aureus; hospital MRSA strain 514/11; read-out: MIC
# MRSA 585/12 = assay: MIC microdilution, hospital MRSA; type: cell-based; details: Staphylococcus aureus; hospital MRSA strain 585/12; read-out: MIC
# S. aureus ATCC 6538 [2] = assay: MIC microdilution; type: cell-based; details: Staphylococcus aureus, ATCC6538; S. aureus ATCC 6538; 18 h, 35 °C; read-out: MIC
# [3] = tested on: S. epidermidis ATCC 12228; assay: Disc-diffusion (GIZ); type: cell-based; details: 18 h, 35 °C, un: unmeasurable
# Source text: (§1) Microorganisms used in this study were as follows: Gram-positive cocci: S. aureus NCTC 4163, S. aureus ATCC 25923, S. aureus ATCC 6538, S. aureus ATCC 29213, S. epidermidis ATCC 12228, S. epidermidis ATCC 35984, Gram-negative rods: E. coli ATCC 10538, E. coli ATCC 25922, E. coli NCTC 8196, P. vulgaris NCTC 4635, P. aeruginosa ATCC 15442, P. aeruginosa NCTC 6749, P. aeruginosa ATCC 27863, B. bronchiseptica ATCC 4617 and yeasts: C. albicans ATCC 10231, C. albicans ATCC 90028, C. parapsilosis ATCC 22019. The other microorganisms used were obtained from the collection of the Department of Pharmaceutical Microbiology, Medical University of Warsaw, Poland.
# (§2) Antibacterial activity was examined by the disc-diffusion method under standard conditions using Mueller-Hinton II agar medium (Becton Dickinson, Heidelberg, Germany) according to CLSI (previously NCCLS) guidelines. Antifungal activities were assessed using Muellere Hinton agar + 2% glucose and 0.5 mg/mL Methylene Blue Dye Medium.
# (§3) Sterile filter paper discs (9 mm diameter, Whatman No. 3 chromatography paper) were dripped with tested compound solutions (in EtOH) to load […] of a given compound per disc. Dry discs were placed on the surface of appropriate agar medium. The results (diameter of the growth inhibition zone, GIZ) were read after 18 h of incubation at 35 °C.
# S. aureus ATCC 4163 [4] = assay: Disc-diffusion (GIZ); type: cell-based; details: 18 h, 35 °C, un: unmeasurable
# Source text: as §1, §2, §3
# [5] = tested on: S. epidermidis ATCC 35984; assay: Disc-diffusion (GIZ); type: cell-based; details: 18 h, 35 °C, un: unmeasurable
# Source text: as §1, §2, §3
# S. aureus ATCC 29213 [6] = assay: Disc-diffusion (GIZ); type: cell-based; details: 18 h, 35 °C, un: unmeasurable
# Source text: as §1, §2, §3
# S. aureus ATCC 6538 [7] = assay: Disc-diffusion (GIZ); type: cell-based; details: 18 h, 35 °C, un: unmeasurable
# Source text: as §1, §2, §3
# S. aureus ATCC 25923 = assay: Disc-diffusion (GIZ); type: cell-based; details: 18 h, 35 °C, un: unmeasurable
# Source text: as §1, §2, §3
# MRSA 573/12 = assay: MIC microdilution, hospital MRSA; type: cell-based; details: Staphylococcus aureus; hospital MRSA strain 573/12; read-out: MIC
# MRSA = assay: MIC microdilution, MRSA strains overall (range given); type: cell-based, Staphylococcus aureus; details: hospital MRSA strains
# MRSA 572/12 = assay: MIC microdilution, hospital MRSA; type: cell-based; details: Staphylococcus aureus; hospital MRSA strain 572/12; read-out: MIC
# MRSE 467/11 = assay: MIC microdilution, hospital MRSE; type: cell-based; details: Staphylococcus epidermidis; hospital MRSE strain 467/11; read-out: MIC
# MRSE 488/11 = assay: MIC microdilution, hospital MRSE; type: cell-based; details: Staphylococcus epidermidis; hospital MRSE strain 488/11; read-out: MIC
# MRSA 452/11 = assay: MIC microdilution, hospital MRSA; type: cell-based; details: Staphylococcus aureus; hospital MRSA strain 452/11; read-out: MIC
# MRSE 459/11 = assay: MIC microdilution, hospital MRSE; type: cell-based; details: Staphylococcus epidermidis; hospital MRSE strain 459/11; read-out: MIC
# MRSA 462/11 = assay: MIC microdilution, hospital MRSA; type: cell-based; details: Staphylococcus aureus; hospital MRSA strain 462/11; read-out: MIC
# MRSE 469/11 = assay: MIC microdilution, hospital MRSE; type: cell-based; details: Staphylococcus epidermidis; hospital MRSE strain 469/11; read-out: MIC
# MRSE 468/11 = assay: MIC microdilution, hospital MRSE; type: cell-based; details: Staphylococcus epidermidis; hospital MRSE strain 468/11; read-out: MIC
# MRSA 522/12 = assay: MIC microdilution, hospital MRSA; type: cell-based; details: Staphylococcus aureus; hospital MRSA strain 522/12; read-out: MIC
# MRSA 456/11 = assay: MIC microdilution, hospital MRSA; type: cell-based; details: Staphylococcus aureus; hospital MRSA strain 456/11; read-out: MIC
# MRSA 586/12 = assay: MIC microdilution, hospital MRSA; type: cell-based; details: Staphylococcus aureus; hospital MRSA strain 586/12; read-out: MIC
# S. aureus ATCC 29213 [8] = assay: MIC microdilution; type: cell-based; details: Staphylococcus aureus, ATCC29213; S. aureus ATCC 29213; 18 h, 35 °C; read-out: MIC
# S. aureus ATCC 4163 [9] = assay: MIC microdilution; type: cell-based; details: Staphylococcus aureus, ATCC4163; S. aureus ATCC 4163; 18 h, 35 °C; read-out: MIC
# HL-60/vinc = assay: Antiproliferative MTT assay, HL-60/vinc; type: cell-based, human
# Source text: (§4) Four human cancer cell lines and one normal cell line were used to evaluate anticancer activity of SAL and its N-benzyl amides: human acute promyelocytic leukemia (HL-60) and its vincristine resistant subline (HL-60/vinc), human colon adenocarcinoma cell lines sensitive (LoVo) and resistant to doxorubicin (LoVo/dx) as well as also normal murine embryonic fibroblast cell line (BALB/3T3). The BALB/3T3 cell line was purchased from the American Type Culture Collection (ATCC Rockville, MD, USA), HL-60 cell line from European Type Culture Collection by courtesy of Professor Spik and Dr Mazurier (Laboratory of Biological Chemistry USTL, Lille, France) and HL-60/vinc, LoVo and LoVo/dx by courtesy of Prof. E. Borowski (Technical University of Gdańsk, Gdańsk, Poland). All the cell lines are maintained in the Institute of Immunology and Experimental Therapy (IIET), Wrocław, Poland.
# (§5) Human leukemia cells were cultured in ISCOVE medium (IIET, Wroclaw, Polond) containing 10% fetal bovine serum and 2 mM L-glutamine (Sigma Aldrich) and 1 µg/100 mL […] for HL-60/vinc (Sigma Aldrich). Human colon adenocarcinoma cell lines were cultured in mixture of OptiMEM and RPMI 1640 (1:1) medium (IIET) supplemented with 5% fetal bovine serum (Thermo Fisher Scientific, Waltham, MA, USA), 2 mM L-glutamine, 1 mM sodium pyruvate (Sigma Aldrich) and 10 µg/100 mL doxorubicin for LoVo/dx (Sigma Aldrich). Murine embryonic fibroblast cells were cultured in Dulbecco medium (Gibco, Darmstadt, Germany) supplemented with 10% fetal bovine serum (Thermo Fisher Scientific) and 2 mM L-glutamine (Sigma Aldrich). All culture media contained antibiotics: 100 U/mL penicillin (Sigma Aldrich) and 100 µg/mL streptomycin (Polfa-Tarchomin, City, Poland). All cell lines were cultured during entire experiment in humid atmosphere at 37 °C and 5% CO2.
# (§6) Twenty four hours before adding the tested compounds all cell lines were seeded in 96-well plates (Sarstedt, Nümbrecht, Germany) in appropriate media with 10^4 cells per well. All cell lines were exposed to each tested agent at four different concentrations from the range 100 to 0.1 µg/mL for 72 h. The cells were also exposed to the reference drugs: cisplatin (Accord, London, UK) and doxorubicin hydrochloride (Fluka, St. Louis, MO, USA). Additionally, all cell lines were exposed to DMSO (the solvent used for tested compounds, Sigma Aldrich) at the concentrations corresponding to those in the tested agent dilutions. For adherent cells sulphorodamine B assay was performed and MTT assay for leukemia cells.
# (§7) Proliferation inhibition of leukemia cells by tested compounds was measured by means of MTT assay. Thus, 20 µL of 3-(4,5-dimethylthiazol-2-yl)-2,5-diphenyl tetrazolium bromide solution (Sigma Aldrich) were added to each well and plates were left in cell incubator for 4 h to allow the cells to metabolize yellow MTT to blue formazan. Then, the lysing mixture consisting of 225 mL dimethylformamide, 67.5 g sodium dodecyl sulfate (both from Sigma Aldrich) and 275 mL of distilled water was added in 80 µL volume per well. Plates were incubated for 24 h for the formazan crystals to be released from cells, dissolved and then absorbance of each well was read at Synergy H4 photometer (BioTek Instruments) at 570 nm wavelength.
# (§8) Results are presented as mean IC50 (concentration of the tested compound that inhibits cell proliferation by 50%) ± standard deviation. IC50 values were calculated in Cheburator 1.0.2, Dmitry Nevozhay software for each experiment. Compounds at each concentration were tested in triplicates in single experiment and each experiment was repeated at least three times independently. The IR was defined as the ratio of IC50 for a given compound calculated for resistant cell line to that measured for its parental drug sensitive cell line (Table 4).
# HL-60 = assay: Antiproliferative MTT assay, HL-60; type: cell-based, human
# Source text: as §4, §5, §6, §7, §8
# BALB/3T3 = assay: Antiproliferative SRB assay, normal fibroblasts BALB/3T3; type: cell-based; details: normal murine embryonic fibroblasts, 72 h, mean ± SD, read-out: IC50 BALB/3T3 (normal cells)
# Source text: as §4, with “Poland. […]” for “Poland.”
# After 72 h of incubation with tested compounds the cells were fixed in situ by gently adding of 50 µL per well of cold 50% trichloroacetic acid TCA (Avantor Performance Materials, City, Poland) and were incubated at 4 °C for 1 h. […] Absorbance of each solution was read at Synergy H4 photometer (BioTek Instruments, Winooski, VT, USA) at 540 nm wavelength. […]
# LoVo/dx = assay: Antiproliferative SRB assay, LoVo/dx; type: cell-based, human
# Source text: as §4, §5, §6
# (§9) After 72 h of incubation with tested compounds the cells were fixed in situ by gently adding of 50 µL per well of cold 50% trichloroacetic acid TCA (Avantor Performance Materials, City, Poland) and were incubated at 4 °C for 1 h. Then the wells were washed four times with water and air-dried. Next, 50 µL of 0.2% solution of sulphorodamine B (Sigma Aldrich) in 1% acetic acid (Avantor Performance Materials) were added to each well and plates were incubated at room temperature for 0.5 h. After incubation time, unbound dye was removed by washing plates four times with 1% acetic acid, whereas the stain bound to cells was solubilized with 150 µL of 10 mM Tris base (Sigma Aldrich). Absorbance of each solution was read at Synergy H4 photometer (BioTek Instruments, Winooski, VT, USA) at 540 nm wavelength.
# as §8
# LoVo = assay: Antiproliferative SRB assay, LoVo; type: cell-based, human
# Source text: as §4, §5, §6, §9, §8
compound,measurement,setting,value
"O=C(O)c1cn(C2CC2)c2cc(N3CCNCC3)c(F)cc2c1=O [ciprofloxacin, reference compound]",MIC,MRSE 466/11,2 µg/mL
same,MIC,MRSE 489/11,0.25 µg/mL
same,MIC,MRSE 461/11,0.25 µg/mL
same,MIC,[1],0.25 µg/mL
same,MIC,MRSA 537/12,64 µg/mL
same,MIC,MRSA 514/11,32 µg/mL
same,MIC,MRSA 585/12,64 µg/mL
same,MIC,S. aureus ATCC 6538 [2],0.25 µg/mL
same,GIZ,[3],30 mm
same,GIZ,S. aureus ATCC 4163 [4],26 mm
same,GIZ,[5],32 mm
same,GIZ,S. aureus ATCC 29213 [6],22 mm
same,GIZ,S. aureus ATCC 6538 [7],28 mm
same,GIZ,S. aureus ATCC 25923,26 mm
same,MIC,MRSA 573/12,32 µg/mL
same,MIC (range over MRSA strains),MRSA,32 to 64 µg/mL
same,MIC,MRSA 572/12,64 µg/mL
same,MIC,MRSE 467/11,16 µg/mL
same,MIC,MRSE 488/11,16 µg/mL
same,MIC,MRSA 452/11,32 µg/mL
same,MIC,MRSE 459/11,16 µg/mL
same,MIC,MRSA 462/11,64 µg/mL
same,MIC,MRSE 469/11,8 µg/mL
same,MIC,MRSE 468/11,16 µg/mL
same,MIC,MRSA 522/12,32 µg/mL
same,MIC,MRSA 456/11,32 µg/mL
same,MIC,MRSA 586/12,64 µg/mL
same,MIC,S. aureus ATCC 29213 [8],0.5 µg/mL
same,MIC,S. aureus ATCC 4163 [9],0.25 µg/mL
"N.N.[Cl][Pt][Cl] [cisplatin, reference compound]",IR HL-60/vinc,HL-60/vinc; IR = IC50 HL-60/vinc / IC50 HL-60,6.87
same,SI HL-60/vinc,HL-60/vinc; SI = IC50 BALB/3T3 / IC50 HL-60/vinc,0.77
same,IC50,"HL-60/vinc; vincristine-resistant subline, 72 h, MTT, mean ± SD, NA: not active in concentrations used (up to 100 µg/mL), read-out: IC50 HL-60/vinc",6.87 ± 1.63 µM
same,IC50,"HL-60; 72 h, MTT, mean ± SD, NA: not active in concentrations used (up to 100 µg/mL), read-out: IC50 HL-60",1 ± 0.23 µM
same,SI HL-60,HL-60; SI = IC50 BALB/3T3 / IC50 HL-60,5.30
same,IC50,BALB/3T3,5.3 ± 2.93 µM
same,IR LoVo/DX,LoVo/dx; IR = IC50 LoVo/dx / IC50 LoVo,1.41
same,SI LoVo/DX,LoVo/dx; SI = IC50 BALB/3T3 / IC50 LoVo/dx,1.02
same,IC50,"LoVo/dx; doxorubicin resistant subline, 72 h, SRB, mean ± SD, read-out: IC50 LoVo/dx",5.2 ± 1.93 µM
same,IC50,"LoVo; 72 h, SRB, mean ± SD, read-out: IC50 LoVo",3.7 ± 1.2 µM
same,SI LoVo,LoVo; SI = IC50 BALB/3T3 / IC50 LoVo,1.43
